Experimental data published in patent US20210308089A1, “METHODS OF TREATING AND/OR PREVENTING VIRAL INFECTIONS AND/OR DISEASES CAUSED BY VIRUSES IN A SUBJECT IN NEED THEREOF” (priority 2020, published 2021).

Tested on: patients of the REDUCE-IT and earlier EPA placebo-controlled trials
Assay: Example 3: adverse events by risk ratio, icosapent ethyl vs placebo (candidate categories; infectious disease terms of interest)
Settings: for ARR / NNT / Risk Ratio (95% CI) / AR: Cough (AE table) / ARR: Cough (AE table) / NNT: Cough (AE table) / Risk Ratio (95% CI): Cough (AE table): R-I
[1] = Cognitive Decline: Attention disorders and disturbances
[2] = Cognitive Decline: Cognitive and attention disorders and disturbances
[3] = Depression: Depressed mood disorders and disturbances
[4] = Depression: Depressive disorders
[5] = Depression: Depressive disorders - Depression
[6] = Depression: Depressive disorders - Major depression
[7] = Depression: Depressive disorders - Persistent depressive disorder
[8] = Depression: Depressive disorders- Agitated depression
[9] = Depression: Mood alterations - Depressed mood
[10] = Depression: Mood alterations - Depressive symptom
[11] = Depression: Mood alterations with depressive symptoms
[12] = Glomerulonephritis and Nephrotic Syndrome
[13] = Limb Fractures and Dislocations
[14] = NASH+Hepatic Steatosis for NFS >0.675
[15] = Psychosis: Psychotic disorder NEC
[16] = Squamous Cell Carcinoma of Head and Neck
[17] = Systemic Inflammatory Response Syndrome
[18] = first of three Cough lines of Table 46
[19] = second of three Cough lines of Table 46

CC/C=C\C/C=C\C/C=C\C/C=C\C/C=C\CCCC(=O)OCC [icosapent ethyl, eicosapentaenoic acid ethyl ester]
ARR (Bipolar Disease): −0.0%
NNT (Bipolar Disease): 2045
Risk Ratio (95% CI) (Bipolar Disease): 0.333 (0.035 to 3.204) 4
ARR (Blood CPK increased): −0.6%
NNT (Blood CPK increased): 164
Risk Ratio (95% CI) (Blood CPK increased): 0.684 (0.485 to 0.964) 2
ARR (Bone Fractures): 0.0%
NNT (Bone Fractures): −4088
Risk Ratio (95% CI) (Bone Fractures): 2.000 (0.181 to 22.053) −3
ARR (Breast Cancer): 0.0%
NNT (Breast Cancer): −2389144
Risk Ratio (95% CI) (Breast Cancer): 1.000 (0.351 to 2.849) −1
ARR (CKD): 0.1%
NNT (CKD): −680
Risk Ratio (95% CI) (CKD): 1.123 (0.766 to 1.646) −1
ARR (COPD): 0.2%
NNT (COPD): −453
Risk Ratio (95% CI) (COPD): 1.084 (0.837 to 1.405) −1
ARR (Chrohn's Disease): −0.0%
NNT (Chrohn's Disease): 2045
Risk Ratio (95% CI) (Chrohn's Disease): 0.333 (0.035 to 3.204) 4
ARR (Chronic Lymphycytic Leukaemia): 0.1%
NNT (Chronic Lymphycytic Leukaemia): −1363
Risk Ratio (95% CI) (Chronic Lymphycytic Leukaemia, case counts given): [3 drug vs 0 PBO]
ARR [1]: 0.0%
NNT [1]: −8362005
Risk Ratio (95% CI) [1]: 1.000 (0.141 to 7.097) −1
ARR [2]: 0.0%
NNT [2]: −8362005
Risk Ratio (95% CI) [2]: 1.000 (0.141 to 7.097) −1
Risk Ratio (95% CI) (Cognitive Decline: Cognitive disturbances): [No cases in study]
ARR (Colon Cancer): 0.1%
NNT (Colon Cancer): −1022
Risk Ratio (95% CI) (Colon Cancer): 2.000 (0.603 to 6.638) −3
ARR (Cough): −0.2%
NNT (Cough): 455
Risk Ratio (95% CI) (Cough): 0.526 (0.245 to 1.131) 3
Risk Ratio (95% CI) (Cystic Fibrosis): [No cases in study]
ARR (Decreased Appetite): 0.5%
NNT (Decreased Appetite): −215
Risk Ratio (95% CI) (Decreased Appetite): 2.584 (1.329 to 5.024) −4
ARR (Deep Venous Thromboembolism): −0.1%
NNT (Deep Venous Thromboembolism): 1364
Risk Ratio (95% CI) (Deep Venous Thromboembolism): 0.625 (0.205 to 1.909) 2
ARR [3]: 0.3%
NNT [3]: −340
Risk Ratio (95% CI) [3]: 1.106 (0.861 to 1.422) −1
ARR [4]: 0.3%
NNT [4]: −314
Risk Ratio (95% CI) [4]: 1.123 (0.867 to 1.454) −1
ARR [5]: 0.2%
NNT [5]: −408
Risk Ratio (95% CI) [5]: 1.097 (0.843 to 1.428) −1
ARR [6]: 0.0%
NNT [6]: −2044
Risk Ratio (95% CI) [6]: 3.001 (0.312 to 28.836) −4
ARR [7]: 0.0%
NNT [7]: −4088
Risk Ratio (95% CI) [7]: 2.000 (0.181 to 22.053) −3
ARR [8]: 0.0%
NNT [8]: −2044
Risk Ratio (95% CI) (Depression: Depressive disorders- Agitated depression, case counts given): [2 drug vs 0 PBO]
ARR [9]: 0.0%
NNT [9]: −3344802
Risk Ratio (95% CI) [9]: 1.000 (0.290 to 3.452) −1
ARR [10]: −0.0%
NNT [10]: 4091
Risk Ratio (95% CI) [10]: 0.500 (0.045 to 5.513) 3
ARR [11]: −0.0%
NNT [11]: 4096
Risk Ratio (95% CI) [11]: 0.857 (0.288 to 2.549) 1
ARR (Dermatitis psoriasiform): 0.0%
NNT (Dermatitis psoriasiform): −4089
Risk Ratio (95% CI) (Dermatitis psoriasiform, case counts given): [1 drug vs 0 PBO]
ARR (Dermatitis, allergic): −0.2%
NNT (Dermatitis, allergic): 454
Risk Ratio (95% CI) (Dermatitis, allergic): 0.250 (0.071 to 0.885) 4
ARR (Diabetic Nephropathy): −0.0%
NNT (Diabetic Nephropathy): 4100
Risk Ratio (95% CI) (Diabetic Nephropathy): 0.909 (0.387 to 2.139) 1
ARR (Dry Eye): 0.1%
NNT (Dry Eye): −1020
Risk Ratio (95% CI) (Dry Eye): 1.129 (0.698 to 1.828) −1
ARR (ESRD): −0.0%
NNT (ESRD): 4092
Risk Ratio (95% CI) (ESRD): 0.667 (0.111 to 3.989) 2
ARR (Embolism and Thrombosis): 0.1%
NNT (Embolism and Thrombosis): −1358
Risk Ratio (95% CI) (Embolism and Thrombosis): 1.064 (0.716 to 1.581) −1
ARR (Epilepsy): 0.0%
NNT (Epilepsy): −1.67e+07
Risk Ratio (95% CI) (Epilepsy): 1.000 (0.063 to 15.986)−1
ARR (Erectile dysfunction): −0.4%
NNT (Erectile dysfunction): 232
Risk Ratio (95% CI) (Erectile dysfunction): 0.784 (0.535 to 1.151) 2
ARR (Gastric Cancer): 0.0%
NNT (Gastric Cancer): −4088
Risk Ratio (95% CI) (Gastric Cancer): 2.000 (0.181 to 22.053) −3
ARR (Gastroesophageal reflux): −0.1%
NNT (Gastroesophageal reflux): 682
Risk Ratio (95% CI) (Gastroesophageal reflux): 0.333 (0.090 to 1.231) 4
ARR [12]: −0.1%
NNT [12]: 1023
Risk Ratio (95% CI) (Glomerulonephritis and Nephrotic Syndrome, case counts given): [0 drug vs 4 PBO]
ARR (Guttate psoriasis): 0.0%
NNT (Guttate psoriasis): −4089
Risk Ratio (95% CI) (Guttate psoriasis, case counts given): [1 drug vs 0 PBO]
ARR (Hepatitis C): 0.0%
NNT (Hepatitis C): −4089
Risk Ratio (95% CI) (Hepatitis C, case counts given): [1 drug vs 0 PBO]
Risk Ratio (95% CI) (IgA Nephropathy): [No cases in study]
ARR (Large intestine polyps): −0.2%
NNT (Large intestine polyps): 511
Risk Ratio (95% CI) (Large intestine polyps): 0.385 (0.137 to 1.078) 4
ARR (Leukaemia): 0.0%
NNT (Leukaemia): −1.67e+07
Risk Ratio (95% CI) (Leukaemia): 1.000 (0.063 to 15.986) −1
ARR [13]: −0.1%
NNT [13]: 1024
Risk Ratio (95% CI) [13]: 0.883 (0.541 to 1.439) 1
ARR (Liver Cancer): 0.0%
NNT (Liver Cancer): −4088
Risk Ratio (95% CI) (Liver Cancer): 2.000 (0.181 to 22.053) −3
ARR (Lung Cancer): −0.1%
NNT (Lung Cancer): 1023
Risk Ratio (95% CI) (Lung Cancer): 0.637 (0.247 to 1.640) 2
ARR (Lupus): −0.0%
NNT (Lupus): 4090
Risk Ratio (95% CI) (Lupus, case counts given): [0 drug vs 1 PBO]
ARR (Macular Degeneration): 0.1%
NNT (Macular Degeneration): −1361
Risk Ratio (95% CI) (Macular Degeneration): 1.188 (0.612 to 2.306) −1
Risk Ratio (95% CI) (Male Infertility): [No cases in study]
ARR (Migraine): 0.2%
NNT (Migraine): −584
Risk Ratio (95% CI) (Migraine): 2.751 (0.877 to 8.631) −4
Risk Ratio (95% CI) (Mucositis): [No cases in study]
ARR (Multiple Sclerosis): −0.0%
NNT (Multiple Sclerosis): 4090
Risk Ratio (95% CI) (Multiple Sclerosis, case counts given): [0 drug vs 1 PBO]
ARR (Muscle spasms): −1.1%
NNT (Muscle spasms): 95
Risk Ratio (95% CI) (Muscle spasms): 0.579 (0.421 to 0.795) 3
ARR (NASH): −0.1%
NNT (NASH): 818
Risk Ratio (95% CI) (NASH): 0.167 (0.020 to 1.384) 5
ARR (NASH for b/l NFS >0.675): −0.4%
NNT (NASH for b/l NFS >0.675): 273
Risk Ratio (95% CI) (NASH for b/l NFS >0.675): 0.252 (0.028 to 2.251) 4
ARR [14]: −0.5%
NNT [14]: 209
Risk Ratio (95% CI) [14]: 0.740 (0.342 to 1.601) 2
ARR (Nephrolithiasis): 0.1%
NNT (Nephrolithiasis): −1017
Risk Ratio (95% CI) (Nephrolithiasis): 1.050 (0.777 to 1.419) −1
ARR (Nephropathies): −0.2%
NNT (Nephropathies): 455
Risk Ratio (95% CI) (Nephropathies): 0.679 (0.380 to 1.213)2
ARR (Nephrotic Syndrome): −0.0%
NNT (Nephrotic Syndrome): 4090
Risk Ratio (95% CI) (Nephrotic Syndrome, case counts given): [0 drug vs 1 PBO]
Risk Ratio (95% CI) (PMS/Dysmenorrhea): [No cases in study]
ARR (PTSD): −0.0%
NNT (PTSD): 4092
Risk Ratio (95% CI) (PTSD): 0.667 (0.111 to 3.989) 2
ARR (Pancreatic Cancer): 0.1%
NNT (Pancreatic Cancer): −1022
Risk Ratio (95% CI) (Pancreatic Cancer): 5.001 (0.585 to 42.789) −5
ARR (Periodontitis): 0.0%
NNT (Periodontitis): −2044
Risk Ratio (95% CI) (Polycystic Ovarian Syndrome): [No cases in study]
ARR (Psoriasis): 0.3%
NNT (Psoriasis): −341
Risk Ratio (95% CI) (Psoriasis): 1.750 (0.949 to 3.230) −3
ARR (Psoriatic Conditions): 0.3%
NNT (Psoriatic Conditions): −292
Risk Ratio (95% CI) (Psoriatic Conditions): 1.875 (1.024 to 3.435) −3
ARR [15]: −0.0%
NNT [15]: 4091
Risk Ratio (95% CI) [15]: 0.500 (0.045 to 5.513) 3
Risk Ratio (95% CI) (Renal Transplant): [No cases in study]
ARR (Rheumatoid Arthritis): −0.1%
NNT (Rheumatoid Arthritis): 1363
Risk Ratio (95% CI) (Rheumatoid Arthritis, case counts given): [0 drug vs 3 PBO]
ARR (Schizophrenia NEC): −0.0%
NNT (Schizophrenia NEC): 4091
Risk Ratio (95% CI) (Schizophrenia NEC): 0.500 (0.045 to 5.513) 3
ARR (Sepsis): −0.1%
NNT (Sepsis): 682
Risk Ratio (95% CI) (Sepsis): 0.807 (0.477 to 1.364) 1
Risk Ratio (95% CI) (Sickle Cell Disease): [No cases in study]
ARR [16]: −0.0%
NNT [16]: 4090
Risk Ratio (95% CI) (Squamous Cell Carcinoma of Head and Neck, case counts given): [0 drug vs 1 PBO]
ARR [17]: −0.1%
NNT [17]: 682
Risk Ratio (95% CI) [17]: 0.143 (0.018 to 1.161) 5
ARR (Ulcerative Colitis): −0.0%
NNT (Ulcerative Colitis): 4090
Risk Ratio (95% CI) (Ulcerative Colitis, case counts given): [0 drug vs 1 PBO]
ARR (Wheezing): −0.3%
NNT (Wheezing): 315
Risk Ratio (95% CI) (Wheezing): 0.639 (0.379 to 1.076) 2
AR: Cough (AE table) [18]: 1,5%
ARR: Cough (AE table) [18]: 0.9%
NNT: Cough (AE table) [18]: −112
Risk Ratio (95% CI): Cough (AE table) [18]: 1.928 (0.692 to 5.373) −3
AR: Cough (AE table) [19]: 0.4%
ARR: Cough (AE table) [19]: −0.2%
NNT: Cough (AE table) [19]: 455
Risk Ratio (95% CI): Cough (AE table) [19]: 0.526 (0.245 to 1.131) 3
Severe SIRS: RR (vs placebo, p value 0.06): approximately 0.17
Systemic inflammatory response: risk ratio (RR) (vs placebo, p-value 0.0338): 0.143
